Results: ChEMBL document CHEMBL1201862, “PubChem BioAssay data set” (2004)
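Interpolation was linear, between the two tested concentrations surrounding the appropriate level; five concentrations were tested over 48 hours in 96-well plates. GI50 marks 50% less growth.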 Calls of active or inactive are those of the source. Rule as the data show it: active = GI50 up to about 1.1 µM and inactive = higher.

Key:
Experiment in all cases: NCI anticancer screen, dose series, 48 h
[1] = system: COLO 205
[2] = system: CCRF-CEM
[3] = system: M14
[4] = system: SW-620
[5] = system: UACC-257
[6] = system: UO-31
[7] = system: 786-0
[8] = system: NCI-H23
[9] = system: KM-20L2
[10] = system: LXFL 529
[11] = system: CAKI-1
[12] = system: ACHN
[13] = system: SF-539
[14] = system: NCI-H460
[15] = system: RPMI-8226
[16] = system: SNB-78
[17] = system: DMS-114
[18] = system: NCI-H522
[19] = system: K562
[20] = system: SF-268
[21] = system: EKVX
[22] = system: SR
[23] = system: Malme-3M
[24] = system: UACC-62
[25] = system: OVCAR-5
[26] = system: HOP-62
[27] = system: DLD-1
[28] = system: LOX IMVI
[29] = system: HCC 2998
[30] = system: M19-MEL
[31] = system: OVCAR-8
[32] = system: MOLT-4
[33] = system: DMS-273
[34] = system: NCI-H226
[35] = system: HT-29
[36] = system: SK-MEL-5
[37] = system: HCT-116
[38] = system: SNB-75
[39] = system: SK-MEL-2
[40] = system: SK-MEL-28
[41] = system: KM12
[42] = system: IGROV-1
[43] = system: HOP-18
[44] = system: OVCAR-3
[45] = system: U-251
[46] = system: HCT-15
[47] = system: A549
[48] = system: SNB-19
[49] = system: XF498
[50] = system: SF-295
[51] = system: OVCAR-4
[52] = system: SN12C
[53] = system: HOP-92
[54] = system: HL-60
[55] = system: SK-OV-3
[56] = system: TK-10
[57] = system: A498

**Q.** What does the source list for O=C1c2nn(-c3ccccc3)nc2C(c2ccccc2)N1c1ccccc1 (centres undefined)?
**A.** GI50 [1]: > 100 µM (inactive); GI50 [2]: > 100 µM (inactive); GI50 [3]: > 100 µM (inactive); GI50 [4]: > 100 µM (inactive); GI50 [5]: > 100 µM (inactive); GI50 [6]: > 100 µM (inactive); GI50 [7]: 33.3 µM (inactive); GI50 [8]: > 100 µM (inactive); GI50 [9]: > 100 µM (inactive); GI50 [10]: > 100 µM (inactive); GI50 [11]: > 100 µM (inactive); GI50 [12]: > 100 µM (inactive); GI50 [13]: 59.8 µM (inactive); GI50 [14]: > 100 µM (inactive); GI50 [15]: > 100 µM (inactive); GI50 [16]: 28.1 µM (inactive); GI50 [17]: > 100 µM (inactive); GI50 [18]: > 100 µM (inactive); GI50 [19]: > 100 µM (inactive); GI50 [20]: > 100 µM (inactive); GI50 [21]: > 100 µM (inactive); GI50 [22]: > 100 µM (inactive); GI50 [23]: > 100 µM (inactive); GI50 [24]: > 100 µM (inactive); GI50 [25]: > 100 µM (inactive); GI50 [26]: 28.3 µM (inactive); GI50 [27]: > 100 µM (inactive); GI50 [28]: > 100 µM (inactive); GI50 [29]: > 100 µM (inactive); GI50 [30]: > 100 µM (inactive); GI50 [31]: 52.8 µM (inactive); GI50 [32]: > 100 µM (inactive); GI50 [33]: > 100 µM (inactive); GI50 [34]: 34 µM (inactive); GI50 [35]: > 100 µM (inactive); GI50 [36]: > 100 µM (inactive); GI50 [37]: > 100 µM (inactive); GI50 [38]: 25 µM (inactive); GI50 [39]: > 100 µM (inactive); GI50 [40]: > 100 µM (inactive); GI50 [41]: > 100 µM (inactive); GI50 [42]: 77.6 µM (inactive); GI50 [43]: > 100 µM (inactive); GI50 [44]: > 100 µM (inactive); GI50 [45]: 95.3 µM (inactive); GI50 [46]: > 100 µM; GI50 [47]: > 100 µM (inactive); GI50 [48]: > 100 µM (inactive); GI50 [49]: > 100 µM (inactive); GI50 [50]: 41.7 µM (inactive); GI50 [51]: > 100 µM (inactive); GI50 [52]: > 100 µM (inactive)

**Q.** CCCCNC(=O)CCN(C(=O)O)S(=O)(=O)c1ccc(NC(=O)c2ccccc2)cc1 was tested. Which GI50 [1] did it give?
**A.** 64.3 µM (inactive)

**Q.** And the GI50 [2]?
**A.** > 100 µM (inactive)

**Q.** And the GI50 [3]?
**A.** > 100 µM (inactive)

**Q.** What about the GI50 [4] of the same molecule?
**A.** 14 µM (inactive)

**Q.** What about the GI50 [5] of the same molecule?
**A.** > 100 µM (inactive)

**Q.** And the GI50 [6]?
**A.** > 100 µM (inactive)

**Q.** And the GI50 [53]?
**A.** > 100 µM (inactive)

**Q.** And the GI50 [7]?
**A.** 11.9 µM (inactive)

**Q.** What about the GI50 [8] of the same molecule?
**A.** > 100 µM (inactive)

**Q.** And the GI50 [9]?
**A.** > 100 µM (inactive)

**Q.** And the GI50 [10]?
**A.** > 100 µM (inactive)

**Q.** And the GI50 [11]?
**A.** > 100 µM (inactive)

**Q.** And the GI50 [12]?
**A.** > 100 µM (inactive)

**Q.** And the GI50 [13]?
**A.** > 100 µM (inactive)

**Q.** What about the GI50 [14] of the same molecule?
**A.** > 100 µM (inactive)

**Q.** And the GI50 [15]?
**A.** > 100 µM (inactive)

**Q.** And the GI50 [16]?
**A.** > 100 µM (inactive)

**Q.** What about the GI50 [17] of the same molecule?
**A.** > 100 µM (inactive)

**Q.** And the GI50 [18]?
**A.** > 100 µM (inactive)

**Q.** What about the GI50 [19] of the same molecule?
**A.** 37 µM (inactive)

**Q.** What about the GI50 [20] of the same molecule?
**A.** > 100 µM (inactive)

**Q.** And the GI50 [21]?
**A.** > 100 µM (inactive)

**Q.** What about the GI50 [54] of the same molecule?
**A.** > 100 µM (inactive)

**Q.** And the GI50 [22]?
**A.** > 100 µM (inactive)

**Q.** And the GI50 [23]?
**A.** > 100 µM (inactive)

**Q.** What about the GI50 [24] of the same molecule?
**A.** > 100 µM (inactive)

**Q.** What about the GI50 [25] of the same molecule?
**A.** > 100 µM (inactive)

**Q.** And the GI50 [26]?
**A.** > 100 µM (inactive)

**Q.** What about the GI50 [27] of the same molecule?
**A.** > 100 µM (inactive)

**Q.** What about the GI50 [28] of the same molecule?
**A.** 18.8 µM (inactive)

**Q.** And the GI50 [29]?
**A.** > 100 µM (inactive)

**Q.** What about the GI50 [30] of the same molecule?
**A.** 79.4 µM (inactive)

**Q.** And the GI50 [31]?
**A.** > 100 µM (inactive)

**Q.** What about the GI50 [32] of the same molecule?
**A.** > 100 µM (inactive)

**Q.** What about the GI50 [33] of the same molecule?
**A.** 30.4 µM (inactive)

**Q.** And the GI50 [34]?
**A.** > 100 µM (inactive)

**Q.** And the GI50 [35]?
**A.** 22 µM (inactive)

**Q.** And the GI50 [36]?
**A.** > 100 µM (inactive)

**Q.** And the GI50 [37]?
**A.** > 100 µM (inactive)

**Q.** And the GI50 [38]?
**A.** > 100 µM (inactive)

**Q.** And the GI50 [39]?
**A.** > 100 µM (inactive)

**Q.** And the GI50 [55]?
**A.** > 100 µM (inactive)

**Q.** And the GI50 [40]?
**A.** > 100 µM (inactive)

**Q.** What about the GI50 [41] of the same molecule?
**A.** > 100 µM (inactive)

**Q.** What about the GI50 [42] of the same molecule?
**A.** > 100 µM (inactive)

**Q.** What about the GI50 [43] of the same molecule?
**A.** > 100 µM (inactive)

**Q.** And the GI50 [44]?
**A.** > 100 µM (inactive)

**Q.** What about the GI50 [56] of the same molecule?
**A.** > 100 µM (inactive)

**Q.** And the GI50 [45]?
**A.** 77.6 µM (inactive)

**Q.** What about the GI50 [57] of the same molecule?
**A.** > 100 µM (inactive)

**Q.** What about the GI50 [46] of the same molecule?
**A.** > 100 µM

**Q.** And the GI50 [47]?
**A.** > 100 µM (inactive)

**Q.** What about the GI50 [48] of the same molecule?
**A.** > 100 µM (inactive)

**Q.** What about the GI50 [49] of the same molecule?
**A.** > 100 µM (inactive)

**Q.** And the GI50 [50]?
**A.** > 100 µM (inactive)

**Q.** And the GI50 [51]?
**A.** > 100 µM (inactive)

**Q.** And the GI50 [52]?
**A.** > 100 µM (inactive)
